Source: patent publication US10294202B2, “Pyrrolidinones as herbicides” (FMC Corporation, priority 2013, dated 2019)

What was measured:
galium = assay: Test A postemergence herbicide test; assay type: in vivo, Galium aparine; conditions: 125 g ai/ha, visual rating on 0 to 100 scale (0 no effect, 100 complete control), approx. 10 days
Summary of the method: (§1)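 Visual injury rating, 0 (no effect) to 100 (complete control), versus untreated controls ~10 days after treatment. Postemergence spray applied at one- to two-leaf stage, plants 2–10 cm tall, potted in loam soil/sand. Greenhouse-held.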

ryegrass, Italian = assay: Test A pre-/postemergence herbicide test; assay type: in vivo, Lolium multiflorum; conditions: for Plant response rating, Ryegrass, Italian: 125 g ai/ha
Summary of the method: (§2)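 Directed soil spray to seeded pots (preemergence) or spray onto one- to two-leaf seedlings 2–10 cm tall (postemergence); loam/sand substrate throughout. Evaluated visually after about 10 days against untreated plants, 0 = no effect, 100 = complete control.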

sedge, umbrella = assay: Test C flooded paddy test; assay type: in vivo, Cyperus difformis; conditions: Flood
Summary of the method: (§3)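 Plants grown to the 2-leaf stage; pots flooded to 3 cm above soil and compound applied directly into the paddy water, depth kept throughout. Greenhouse 13 to 15 days, then visual rating vs untreated controls on 0–100 scale (0 no effect, 100 complete control); dash means no result.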

ducksalad = assay: Test C flooded paddy test; assay type: in vivo, Heteranthera limosa; conditions: Flood
Summary of the method: as §3

rice = assay: Test C flooded paddy test; assay type: in vivo, Oryza sativa; conditions: Flood
Summary of the method: as §3

barnyardgrass = assay: Test C flooded paddy test; assay type: in vivo, Echinochloa crus-galli; conditions: Flood
Summary of the method: as §3

ragweed = assay: Test A pre-/postemergence herbicide test; assay type: in vivo, Ambrosia elatior; conditions: for Plant response rating, Ragweed: 125 g ai/ha
Summary of the method: as §2

blackgrass = assay: Test A postemergence herbicide test; assay type: in vivo, Alopecurus myosuroides
Summary of the method: as §1

[1] = Postemergence, visual rating on 0 to 100 scale (0 no effect, 100 complete control), approx. 10 days
[2] = Preemergence, 0 to 100 scale where 0 is no effect and 100 is complete control
[3] = Preemergence, 500 g ai/ha, visual rating on 0 to 100 scale (0 no effect, 100 complete control)
[4] = 125 g ai/ha, scale of 0 to 100 where 0 is no effect and 100 is complete control, 13 to 15 days
[5] = 250 g ai/ha, scale of 0 to 100 where 0 is no effect and 100 is complete control, 13 to 15 days

O=C1NCC(c2ccc(F)c(F)c2)C1C(=O)Nc1ccc(F)c(F)c1F (stereo not shown) [Compound 346]
Plant response rating, Galium (galium): 30 | Plant response rating, Ryegrass, Italian (ryegrass, Italian; [1]): 20 | Plant response rating, Ryegrass, Italian (ryegrass, Italian; [2]): 0 | Ryegrass, Italian plant response rating (ryegrass, Italian; [3]): 30 | Plant response rating, Sedge, Umbrella (sedge, umbrella; [4]): 0 | Plant response rating, Sedge, Umbrella (sedge, umbrella; [5]): 0 | Plant response rating, Sedge, Umbrella (sedge, umbrella; 500 g ai/ha, scale 0 to 100): 0 | Plant response rating, Sedge, Umbrella (sedge, umbrella; 1000 g ai/ha, scale 0 to 100): 0 | Plant response rating, Ducksalad (ducksalad; [4]): 95 | Plant response rating, Ducksalad (ducksalad; [5]): 100 | Plant response rating, Ducksalad (ducksalad; 500 g ai/ha, scale 0 to 100): 100 | Plant response rating, Ducksalad (ducksalad; 1000 g ai/ha, scale 0 to 100): 100 | Plant response rating, Rice (rice; [4]): 0 | Plant response rating, Rice (rice; [5]): 0 | Plant response rating, Rice (rice; 500 g ai/ha, scale 0 to 100): 0 | Plant response rating, Rice (rice; 1000 g ai/ha, scale 0 to 100): 0 | Plant response rating, Barnyardgrass (barnyardgrass; [4]): 30 | Plant response rating, Barnyardgrass (barnyardgrass; [5]): 45 | Plant response rating, Barnyardgrass (barnyardgrass; 500 g ai/ha, scale 0 to 100): 65 | Plant response rating, Barnyardgrass (barnyardgrass; 1000 g ai/ha, scale 0 to 100): 70 | Plant response rating, Ragweed (ragweed; [1]): 0 | Plant response rating, Ragweed (ragweed; [2]): 0 | Ragweed plant response rating (ragweed; [3]): 0 | Plant response rating, Blackgrass (blackgrass; 125 g ai/ha, visual rating on 0 to 100 scale (0 no effect, 100 complete control), approx. 10 days): 20 | Plant response rating, Blackgrass (blackgrass; 500 g ai/ha, 0 to 100 scale (0 no effect, 100 complete control)): 50
